# Experimental data: patent US20040044075A1, “Alpha acyloxyacetamides for kallikrein and urokinase inhibition” (Genzyme Corporation, priority 2002, published 2004)
# Experiments:
# male rats = assay: Rat model of inflammatory bowel disease (DNBS-induced distal colitis); type: in vivo
# Protocol: Compounds were tested according to procedures described in C M Hogaboam et al., Eur. J. Pharmacol. 309:261 (1996), the entire teachings of which are incorporated herein by reference. Groups of 3 overnight fasted male rats weighing 150±10 grams were used. Distal colitis was induced by intra-colonic instillation of 0.5 ml/rat of DNBS (2,4-dinitrobenzene sulfonic acid, 60 mg/ml in ethanol 30%) after which air (2 ml) was gently injected through the cannula to ensure that the solution remained in the colon. Test compound was administered orally 24 and 2 hours before DNBS instillation and then daily for 5 days in total of 7 doses. The animals were sacrificed 24 hours after the final dose of test compound administration and each colon was removed and weighed. A 30 percent or more (≧30%) inhibition in net increase of colon to 100 grams body weight ratio, relative to vehicle-control-2 group is considered significant.
# [1] = tested on: Long Evans derived male or female rats; assay: Carageenan assay (hind paw edema); type: in vivo; details: for Inhibition (of hind paw edema): 3 hours after carageenan; for Edema: hind paw edema 3 hours after carageenan
# Protocol: The assay was performed according to procedures disclosed in Winter et al, Proc. Exper. Biol. Med 111: 544 (1962), the entire teachings of which are incorporated herein by reference. […] Hind paw edema, as a measure of inflammation, was measured 3 hours after carageenan administration using a plethysmometer (Ugo Basile Catalog No. 7150) with water cell (25 mm diameter, Catalog No. 7157). Reduction of hind paw edema by 30% or more indicates significant acute anti-inflammatory activity.
# Kallikrein = Kallikrein (Homo sapiens, UniProt P03952); assay: Kallikrein inhibition assay (fluorometric, H-Pro-Phe-Arg-AMC substrate); type: biochemical; details: 24° C, HEPES pH 7.5, 5% DMSO, fluorescence after ten minutes
# Chain of Kallikrein (P03952 whole entry): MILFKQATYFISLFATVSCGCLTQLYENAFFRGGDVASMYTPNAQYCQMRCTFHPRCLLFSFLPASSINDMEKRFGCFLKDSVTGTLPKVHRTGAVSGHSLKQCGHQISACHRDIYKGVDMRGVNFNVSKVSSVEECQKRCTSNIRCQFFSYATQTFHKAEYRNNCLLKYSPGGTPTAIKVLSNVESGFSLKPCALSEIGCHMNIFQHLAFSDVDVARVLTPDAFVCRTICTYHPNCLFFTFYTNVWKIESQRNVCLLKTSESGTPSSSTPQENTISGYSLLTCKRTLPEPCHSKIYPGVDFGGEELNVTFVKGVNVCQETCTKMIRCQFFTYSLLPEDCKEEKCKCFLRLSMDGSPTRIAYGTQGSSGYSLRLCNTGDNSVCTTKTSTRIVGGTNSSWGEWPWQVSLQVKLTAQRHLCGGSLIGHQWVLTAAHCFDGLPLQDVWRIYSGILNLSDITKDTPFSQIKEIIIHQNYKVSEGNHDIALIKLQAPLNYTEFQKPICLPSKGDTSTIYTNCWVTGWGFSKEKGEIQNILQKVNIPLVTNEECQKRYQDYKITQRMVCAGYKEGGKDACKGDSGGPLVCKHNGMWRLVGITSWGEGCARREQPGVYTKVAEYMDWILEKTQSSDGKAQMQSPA
# Protocol: Kallikrein activity was assayed fluorometrically with an aminomethyl coumarin-containing (AMC-containing) substrate according to procedures described in Zimmerman et al., Proc. Natl. Acad. Sci. USA 75:750 (1978), the entire teachings of which are incorporated herein by reference. Specifically, enzyme assays with varying concentrations of the fluorogenic substrate H-Pro-Phe-Arg-AMC were conducted at 24° C in 0.05 M 4-(2-hydroxyethyl)-piperazineethanesulfonic acid (HEPES) buffer, pH 7.5/5% (vol/vol) dimethyl sulfoxide. The final volume was 0.1 ml in each assay. Fluorescence was read after ten minutes at 360 nm (activation wavelength) and 460 nm (emission wavelength).
# [2] = tested on: ICR derived male or female mice; assay: Acetic acid writhing assay; type: in vivo; details: for % Reduction of Writhes: one hour before acetic acid
# Protocol: The analgesic activity of a number of compounds of the present invention were tested in an acetic acid writhing assay disclosed in Inoue et al., Arzneimittel Forschung Drug Research 41:228 (1991), the entire teachings of which are incorporated herein by reference. The test substance was administered intraperitoneally (500, 100 and 20 mg/kg) to groups of 3 ICR derived male or female mice weighing 22±2 g one hour before the injection of acetic acid (3%, 10 ml/kg, IP). Reduction in the number of writhes by 50% or more per group of animals observed during the 5-10 minutes period after acetic acid administration, relative to a vehicle-treated control group (challenge with acetic acid), indicates analgesic activity.
# [3] = 4 mg/kg PO × 7, with DNBS, rats
# [4] = 20 mg/kg PO × 7, with DNBS, rats
# [5] = 75 mg/kg PO × 7, with DNBS, rats
compound,measurement,setting,value
COc1ccc(OC)c(C(=O)CCC(=O)OC(C(=O)NCc2cc(OC)c(OC)c(OC)c2)c2ccc(Br)cc2)c1 (stereo not shown) [Compound (26)],Ave. (average final weight of the colon in grams),male rats; [3],1.061 grams
same,Inhibition (percent inhibition in net increase of colon weight relative to control Group 2),male rats; [3],0%
same,Net Inc. (net increase in weight of the colon relative to control Group 1),male rats; [3],0.574 grams
same,Ave. (average final weight of the colon in grams),male rats; [4],0.947 grams
same,Inhibition (percent inhibition in net increase of colon weight relative to control Group 2),male rats; [4],17%
same,Net Inc. (net increase in weight of the colon relative to control Group 1),male rats; [4],0.460 grams
same,Ave. (average final weight of the colon in grams),male rats; [5],0.857 grams
same,Inhibition (percent inhibition in net increase of colon weight relative to control Group 2),male rats; [5],33%
same,Net Inc. (net increase in weight of the colon relative to control Group 1),male rats; [5],0.370 grams
same,dose response in the rat model of inflammatory bowel disease (in words),"male rats; 75, 20 and 4 mg/kg PO × 7, rats",dose responsive activity
same,statistical significance of response in the rat model of inflammatory bowel disease (in words),"male rats; highest dose (75 mg/kg) PO × 7, rats",statistically significant response
same,activity in a rat model of inflammatory bowel disease (in words),male rats; summary statement,activity
same,Inhibition (of hind paw edema),[1]; 30 mg/kg IP,0%
same,Edema,[1]; 30 mg/kg IP,0.97 mL
same,Inhibition (of hind paw edema),[1]; 100 mg/kg IP,19%
same,Edema,[1]; 100 mg/kg IP,0.76 mL
same,Inhibition (of hind paw edema),[1]; 300 mg/kg IP,34%
same,Edema,[1]; 300 mg/kg IP,0.62 mL
same,dose response in the carageenan assay (in words),"[1]; 300, 100 and 30 mg/kg IP",dose responsive activity
same,statistical significance of response in the carageenan assay (in words),[1]; highest dose (300 mg/kg) IP,statistically significant response
same,IC50,Kallikrein,0.191 µM
same,% Reduction of Writhes,[2]; 20 mg/kg IP,25%
same,% Reduction of Writhes,[2]; 100 mg/kg IP,58%
same,% Reduction of Writhes,[2]; 500 mg/kg IP,75%
same,significance of response in the acetic acid writhing test (in words),[2]; both the 500 and 100 mg/kg doses IP,significant response
"COc1ccc2c(c1)c(CC(=O)O)c(C)n2C(=O)c1ccc(Cl)cc1 [Indomethacin, reference compound]",Inhibition (of hind paw edema),[1]; 10 mg/kg IP,53%
same,Edema,[1]; 10 mg/kg IP,0.44 mL
COc1cc(CNC(=O)C(OC(=O)CCOc2ccccc2)c2ccc(Br)cc2)cc(OC)c1OC (stereo not shown) [Compound (27)],IC50,Kallikrein,0.364 µM
same,% Reduction of Writhes,[2]; 20 mg/kg IP,8%
same,% Reduction of Writhes,[2]; 100 mg/kg IP,25%
same,% Reduction of Writhes,[2]; 500 mg/kg IP,92%
